Measured values: patent US20260042731A1, “(2,4-DICHLOROPHENOXY)ACETIC ACID ANALOGS” (CORTEVA AGRISCIENCE LLC, priority 2022, published 2026)
Where two headings read alike, the source gives them in different places.

Assays:
[1] = system: weeds (ABUTH, AMATA, AMBEL, CHEAL, ERICA); assay: Postemergence herbicide evaluation, overall average % weed control across ABUTH, AMATA, AMBEL, CHEAL, ERICA; assay type: in vivo; conditions: post-emergence, average over the five weeds, read-out: Overall Ave % Weed Control; for pest or weed control at 280 g/ha: 280 g ae/ha; for pest or weed control at 560 g/ha: 560 g ae/ha
[2] = Volatility of compounds measured by thermogravimetric analysis (TGA); assay type: physicochemical
[3] = system: Chenopodium album (CHEAL), common lambsquarters; assay: Postemergence herbicide evaluation, growth of Chenopodium album (CHEAL); assay type: in vivo; conditions: Chenopodium album, post-emergence, percent reduction in plant size relative to untreated control, read-out: Ave. CHEAL; for pest or weed control at 280 g/ha: 280 g ae/ha; for pest or weed control at 560 g/ha: 560 g ae/ha
[4] = system: Ambrosia artemisiifolia (AMBEL), common ragweed; assay: Postemergence herbicide evaluation, growth of Ambrosia artemisiifolia (AMBEL); assay type: in vivo; conditions: Ambrosia artemisiifolia, post-emergence, percent reduction in plant size relative to untreated control, read-out: AVE. AMBEL; for pest or weed control at 280 g/ha: 280 g ae/ha; for pest or weed control at 560 g/ha: 560 g ae/ha
[5] = system: glyphosate resistant Conyza canadensis (L.) (ERICA), horseweed; assay: Postemergence herbicide evaluation, growth of Conyza canadensis (ERICA); assay type: in vivo; conditions: Erigeron canadensis, post-emergence, percent reduction in plant size relative to untreated control, read-out: Ave. ERICA; for pest or weed control at 280 g/ha: 280 g ae/ha; for pest or weed control at 560 g/ha: 560 g ae/ha
[6] = system: Abutilon theophrasti (ABUTH), velvetleaf; assay: Postemergence herbicide evaluation, growth of Abutilon theophrasti (ABUTH); assay type: in vivo; conditions: Abutilon theophrasti, post-emergence, percent reduction in plant size relative to untreated control, read-out: AVE. ABUTH; for pest or weed control at 280 g/ha: 280 g ae/ha; for pest or weed control at 560 g/ha: 560 g ae/ha
[7] = system: Amaranthus rudis (AMATA), tall water hemp; assay: Postemergence herbicide evaluation, growth of Amaranthus rudis (AMATA); assay type: in vivo; conditions: Amaranthus tuberculatus, post-emergence, percent reduction in plant size relative to untreated control, read-out: Ave. AMATA; for pest or weed control at 280 g/ha: 280 g ae/ha; for pest or weed control at 560 g/ha: 560 g ae/ha

| Structure (SMILES) | pest or weed control at 280 g/ha ([1]; 168 h, 7 DAA) | pest or weed control at 560 g/ha ([1]; 168 h, 7 DAA) | pest or weed control at 280 g/ha ([1]; 336 h, 14 DAA) | pest or weed control at 560 g/ha ([1]; 336 h, 14 DAA) | pest or weed control at 280 g/ha ([1]; 504 h, 21 DAA) | pest or weed control at 560 g/ha ([1]; 504 h, 21 DAA) | pest or weed control at 280 g/ha ([3]; 168 h, 7 DAA) | pest or weed control at 560 g/ha ([3]; 168 h, 7 DAA) | pest or weed control at 280 g/ha ([3]; 336 h, 14 DAA) | pest or weed control at 560 g/ha ([3]; 336 h, 14 DAA) | pest or weed control at 280 g/ha ([3]; 504 h, 21 DAA) | pest or weed control at 560 g/ha ([3]; 504 h, 21 DAA) | pest or weed control at 280 g/ha ([4]; 168 h, 7 DAA) | pest or weed control at 560 g/ha ([4]; 168 h, 7 DAA) | pest or weed control at 280 g/ha ([4]; 336 h, 14 DAA) | pest or weed control at 560 g/ha ([4]; 336 h, 14 DAA) | pest or weed control at 280 g/ha ([4]; 504 h, 21 DAA) | pest or weed control at 560 g/ha ([4]; 504 h, 21 DAA) | pest or weed control at 280 g/ha ([5]; 168 h, 7 DAA) | pest or weed control at 560 g/ha ([5]; 168 h, 7 DAA) | other results |
| --- | --- | --- | --- | --- | --- | --- | --- | --- | --- | --- | --- | --- | --- | --- | --- | --- | --- | --- | --- | --- | --- |
| Cc1cc(OC(=O)COc2ccc(Cl)cc2Cl)n(C)n1 [Compound E6, 1,3-Dimethyl-1H-pyrazol-5-yl 2-(2,4-dichlorophenoxy)acetate] | 69% | 73% | 79% | 86% | 82% | 90% | 63% | 70% | 65% | 85% | 58% | 90% | 65% | 73% | 80% | 88% | 93% | 96% | 63% | 65% | TGA Data (rate of weight loss, volatility) [2]: 1 µg/min; pest or weed control at 280 g/ha ([5]; 336 h, 14 DAA): 83%; pest or weed control at 560 g/ha ([5]; 336 h, 14 DAA): 83%; pest or weed control at 280 g/ha ([5]; 504 h, 21 DAA): 96%; pest or weed control at 560 g/ha ([5]; 504 h, 21 DAA): 95%; pest or weed control at 280 g/ha ([6]; 168 h, 7 DAA): 83%; pest or weed control at 560 g/ha ([6]; 168 h, 7 DAA): 83%; pest or weed control at 280 g/ha ([6]; 336 h, 14 DAA): 88%; pest or weed control at 560 g/ha ([6]; 336 h, 14 DAA): 93%; pest or weed control at 280 g/ha ([6]; 504 h, 21 DAA): 96%; pest or weed control at 560 g/ha ([6]; 504 h, 21 DAA): 94%; pest or weed control at 280 g/ha ([7]; 168 h, 7 DAA): 70%; pest or weed control at 560 g/ha ([7]; 168 h, 7 DAA): 75%; pest or weed control at 280 g/ha ([7]; 336 h, 14 DAA): 82%; pest or weed control at 560 g/ha ([7]; 336 h, 14 DAA): 80%; pest or weed control at 280 g/ha ([7]; 504 h, 21 DAA): 70%; pest or weed control at 560 g/ha ([7]; 504 h, 21 DAA): 77% |
| C/C(N)=N/OC(=O)COc1ccc(Cl)cc1Cl [Compound A12, N′-(2-(2,4-Dichlorophenoxy)acetoxy)acetimidamide] | 72% | 76% | 88% | 89% | 93% | 92% | 68% | 68% | 80% | 78% | 86% | 80% | 65% | 75% | 83% | 96% | 97% | 99% | 65% | 68% | TGA Data (rate of weight loss, volatility) [2]: 5.8 µg/min; pest or weed control at 280 g/ha ([5]; 336 h, 14 DAA): 90%; pest or weed control at 560 g/ha ([5]; 336 h, 14 DAA): 91%; pest or weed control at 280 g/ha ([5]; 504 h, 21 DAA): 99%; pest or weed control at 560 g/ha ([5]; 504 h, 21 DAA): 97%; pest or weed control at 280 g/ha ([6]; 168 h, 7 DAA): 85%; pest or weed control at 560 g/ha ([6]; 168 h, 7 DAA): 93%; pest or weed control at 280 g/ha ([6]; 336 h, 14 DAA): 90%; pest or weed control at 560 g/ha ([6]; 336 h, 14 DAA): 97%; pest or weed control at 280 g/ha ([6]; 504 h, 21 DAA): 96%; pest or weed control at 560 g/ha ([6]; 504 h, 21 DAA): 99%; pest or weed control at 280 g/ha ([7]; 168 h, 7 DAA): 75%; pest or weed control at 560 g/ha ([7]; 168 h, 7 DAA): 78%; pest or weed control at 280 g/ha ([7]; 336 h, 14 DAA): 97%; pest or weed control at 560 g/ha ([7]; 336 h, 14 DAA): 83%; pest or weed control at 280 g/ha ([7]; 504 h, 21 DAA): 86%; pest or weed control at 560 g/ha ([7]; 504 h, 21 DAA): 88% |
| O=C(COc1ccc(Cl)cc1Cl)ON(Cc1ccccc1)Cc1ccccc1 [Compound A14, N, N-Dibenzyl-O-(2-(2,4-dichlorophenoxy)acetyl)hydroxylamine] | 51% | 44% | 51% | 46% | 47% | 39% | 60% | 58% | 68% | 63% | 70% | 63% | 50% | 40% | 63% | 50% | 58% | 33% | 43% | 40% | TGA Data (rate of weight loss, volatility) ([2]; 70° C.): 0.4 (70° C.) μg/min; pest or weed control at 280 g/ha ([5]; 336 h, 14 DAA): 50%; pest or weed control at 560 g/ha ([5]; 336 h, 14 DAA): 50%; pest or weed control at 280 g/ha ([5]; 504 h, 21 DAA): 43%; pest or weed control at 560 g/ha ([5]; 504 h, 21 DAA): 40%; pest or weed control at 280 g/ha ([6]; 168 h, 7 DAA): 38%; pest or weed control at 560 g/ha ([6]; 168 h, 7 DAA): 28%; pest or weed control at 280 g/ha ([6]; 336 h, 14 DAA): 23%; pest or weed control at 560 g/ha ([6]; 336 h, 14 DAA): 20%; pest or weed control at 280 g/ha ([6]; 504 h, 21 DAA): 13%; pest or weed control at 560 g/ha ([6]; 504 h, 21 DAA): 15%; pest or weed control at 280 g/ha ([7]; 168 h, 7 DAA): 63%; pest or weed control at 560 g/ha ([7]; 168 h, 7 DAA): 55%; pest or weed control at 280 g/ha ([7]; 336 h, 14 DAA): 50%; pest or weed control at 560 g/ha ([7]; 336 h, 14 DAA): 48%; pest or weed control at 280 g/ha ([7]; 504 h, 21 DAA): 53%; pest or weed control at 560 g/ha ([7]; 504 h, 21 DAA): 43% |
